Experimental data: patent US10798939B2, “Cellulose binding domain chitosan seed coating” (priority 2015, dated 2020)

Test system: V. radiata
Conditions: AgNO3 0-2 mM bolus doses, day 4 to day 8
Description: For two days beans were allowed to germinate in the dark at 20° C. as described above. On day 3, the plate was incubated at 20° C./12 hr photoperiod and 100% humidity, and 500 μL of distilled water were added to each well. On day 5 another 750 μL of distilled water were added and the cover of the well plate was removed. The EC50 was determined as the concentration at which the change in mass of the seedling was half that of untreated V. radiata.

SMILES: O=[N+]([O-])[O-].[Ag+] [AgNO3, silver nitrate]
- change in mass of V. radiata: decreased significantly in a dose response fashion
